From US20140140931A1, “ANTIOXIDANT, NEUROPROTECTIVE AND ANTINEOPLASTIC NANOPARTICLES COMPRISING A THERAPEUTIC AGENT ON AN AMPHIPHILIC SPACER OR AN AMPHIPHILIC POLYMER” (CEDARS-SINAI MEDICAL CENTER, priority 2011, published 2014)

Key:
[1] = test system: intracranial U87 MG tumor xenograft; experiment: Survival study of mice with intracranial U87 MG GBM xenograft; format: in vivo, athymic nu/nu mice; conditions: i.v. every three days for 4 weeks from day 7 (16 mg/kg/day CPT-TEG-ALA)
Method: All animal studies were performed according to Cedars-Sinai Medical Center Institutional Animal Care and Use Committee protocols. Female 6- to 8-week-old athymic nu/nu mice (Charles River Laboratories) were used for all experiments. […] For Intracranial tumor model, mice underwent intracranial stereotactic implantation of U87 MG cells. Mice were anesthetized using a ketamine and dexmedetomidine combination as a single intraperitoneal injection. 10^5 U87 MG cells suspended in 2 μl of PBS were implanted in the right frontal region of the brain using a Hamilton syringe. The animals received intraperitoneal injection of atipamezole to reverse the dexmedetomidine effect. A single subcutaneous injection of buprenorphine was administered for pain relief.
Two perpendicular diameters of the tumor are measured, and the volume is calculated according to the equation: V (mm^3)=L (mm)×W^2 (mm^2)/2, where L is the longest diameter and W is the diameter perpendicular to L. In the intracranial model, the animals (n=8) received intravenous (tail vein) injection of nanoprodrugs (16 mg/kg/day CPT-TEG-ALA) beginning 7 days after tumor implantation every three days for 4 weeks. […] As control, animals received injection of irinotecan, α-tocopherol nanosuspension, and saline
For mouse survival study, log-rank statistical analysis was performed. […]

[2] = test system: P-glycoprotein (Pgp); conditions: cited from earlier work
[3] = 30 minutes after administration; cited from earlier work
[4] = cited from earlier work

Row | SMILES | Median survival time [1] | Pgp substrate [2] | Lactone form hydrolyzed to an open ring [3] | Solubility in water [4]
1 | CCc1c2c(nc3ccc(OC(=O)N4CCC(N5CCCCC5)CC4)cc13)-c1cc3c(c(=O)n1C2)COC(=O)[C@]3(O)CC [irinotecan] | 41.0 days | substrates |  | 
2 | CC[C@@]1(O)C(=O)OCc2c1cc1n(c2=O)Cc2cc3ccccc3nc2-1 [camptothecin, (S)-4-ethyl-4-hydroxy-1H-pyran-[3′,4′:6, 7]indolizino[1,2-b]quinoline-3,14(4H, 12H)-dione] |  |  | 50% | essentially insoluble in water
3 | CCc1c2c(nc3ccc(O)cc13)-c1cc3c(c(=O)n1C2)COC(=O)[C@]3(O)CC [SN38] |  | substrates |  | 
